Measurements as given in PubChem BioAssay (NCI).
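1) Cells in 96-well plates. 2) Compound, 48 h, 5 concentrations. 3) Linear interpolation between surrounding doses. 4) Unreached endpoint = highest concentration. GI50 = concentration required for 50% inhibition of growth. At the TGI there is no net growth.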 Where a SMILES comes first, the peptide text is derived from it. [ ]: non-standard residue; d: D form. pGlu = O=C1CC[CH](C(=O)O)N1

Key:
Test in all cases: growth of human tumour cells (NCI), 48 h
SK-MEL-2 melanoma = test system: SK-MEL-2 melanoma
MDA-MB-231 breast = test system: MDA-MB-231 breast
SN12C renal = test system: SN12C renal
HOP-62 NSCLC = test system: HOP-62 NSCLC
NCI-H460 lung = test system: NCI-H460 lung
DU-145 prostate = test system: DU-145 prostate
HT29 colon = test system: HT29 colon
UO-31 renal = test system: UO-31 renal
SW-620 colon = test system: SW-620 colon
SK-OV-3 ovarian = test system: SK-OV-3 ovarian

Compound | TGI (SK-MEL-2 melanoma) [µM] | TGI (MDA-MB-231 breast) [µM] | TGI (SN12C renal) [µM] | TGI (HOP-62 NSCLC) [µM] | TGI (NCI-H460 lung) [µM] | TGI (DU-145 prostate) [µM] | TGI (HT29 colon) [µM] | TGI (UO-31 renal) [µM] | TGI (SW-620 colon) [µM] | TGI (SK-OV-3 ovarian) [µM] | GI50 (HT29 colon) [µM]
CC1(C)O[C@H]2OC(CO)C(OS(C)(=O)=O)[C@H]2O1 (stereo partly drawn) | > 100 | > 100 | > 100 | > 100 | > 100 | > 100 | > 100 | > 100 | > 100 |  | 
O=C1C2=C(CCCCC2)C2CCCCC12O (stereo not drawn) | > 100 |  | > 100 | > 100 | > 100 |  | > 100 | > 100 | > 100 | > 100 | 
Cc1ccc(S(=O)(=O)C2c3nc4ccccc4cc3-c3nc4ccccc4nc32)cc1 (stereo not drawn) | > 100 |  | > 100 | > 100 |  |  |  | > 100 | > 100 | > 100 | 
CCOC(=O)Cn1nnc2cc(Nc3nc4ccccc4nc3C(=O)OCC)ccc21 | > 100 |  | > 100 | 79.6 | > 100 | > 100 | > 100 | 19.4 | > 100 | > 100 | 
N#Cc1ccc(Nc2cnc3ccc(N)cc3n2)cc1 | > 100 |  | > 100 | > 100 | > 100 |  | > 100 | > 100 | > 100 | > 100 | 
CCCCCCCC(=O)OCC(C[As](=O)(O)O)OC(=O)CCCCCCC (stereo not drawn) |  |  | 27.9 | 34.5 |  |  | 33.4 | 28.2 | 29.1 | 29.1 | 
CCCCNC(=S)c1ccc(OC(=O)Nc2ccc(Cl)cc2)cc1 | > 100 |  |  | > 100 | > 100 | > 100 | > 100 | > 100 | > 100 | > 100 | 
CC1(C)OCC(COC(=O)NCn2cc(-c3ccccc3)nn2)O1 (stereo not drawn) | > 100 | > 100 | > 100 | > 100 | > 100 | > 100 | > 100 |  | > 100 |  | 
COc1ccc(-c2nnc(-c3ccncc3)o2)cc1 | > 100 | > 100 | > 100 | > 100 |  | > 100 | > 100 | > 100 |  | > 100 | 
CN(C)CCNC(=O)c1cccc2[nH]c(-c3ccncc3)nc12 | 11.5 | 9.74 | > 76.3 | 52.8 | 8.22 | > 100 | 7.27 | 6.76 | 13 |  | 
CCOC(=O)c1nc2cc(C(F)(F)F)ccc2nc1Nc1ccc(F)cc1 | > 100 | > 100 | > 100 | > 100 | > 100 | > 100 | > 100 |  | > 100 | > 100 | 
CC(=O)Nc1ccc(-c2nnc(SCC(=O)Nc3cccc([N+](=O)[O-])c3)o2)cc1 | 37.2 |  | 33.2 | 45.8 | 28.8 |  | 37.2 | 39.8 | 44 | 24.5 | 
CC(=O)NC(C)c1ccc(N=NN2CCCC2)cc1 (stereo not drawn) | > 100 | > 100 | > 100 | > 100 |  | > 100 | > 100 | > 100 | > 100 | > 100 | 
COc1ccc2c(c1)CC1(O)COc3cc(OC)ccc3C1O2 (stereo not drawn) | > 100 | > 100 | > 100 | > 100 |  | > 100 | > 100 | > 100 | > 100 | > 100 | 
CN(C)CCCNc1cnc2cc3ccccc3cc2n1 | 44.8 | 41.4 | > 100 | > 100 | > 100 | > 100 | 30.5 |  | > 100 | > 100 | 
COc1ccc(/C=N\NC(=O)Nc2cccc3ccccc23)cc1 | 43.7 | 44.4 | > 100 | 26.5 | 40.2 | > 100 | > 100 | > 100 | > 100 |  | 
CNC(=O)c1ccccc1[S+]1c2cccc3cccc(c23)C(=O)N1C (stereo not drawn) | > 100 | > 100 | > 100 | > 100 |  | > 100 | > 100 | > 100 | > 100 |  | 
COc1cccc2c1-c1c(OC)cccc1SS2 | 46.4 | 56.1 | 30.3 | > 100 | 43.8 | > 100 | 36.2 | > 100 | 47.2 |  | 

Compound | TGI (SK-MEL-2 melanoma) [µM] | TGI (MDA-MB-231 breast) [µM] | TGI (SN12C renal) [µM] | TGI (HOP-62 NSCLC) [µM] | TGI (NCI-H460 lung) [µM] | TGI (DU-145 prostate) [µM] | TGI (HT29 colon) [µM] | TGI (UO-31 renal) [µM] | TGI (SW-620 colon) [µM] | TGI (SK-OV-3 ovarian) [µM] | GI50 (HT29 colon) [µM]
C=CCCC(On1c(-c2ccc(Cl)cc2)csc1=S)c1ccccc1 (stereo not drawn) | > 100 | > 100 | > 100 | > 100 |  | > 100 | > 100 | > 100 | > 100 |  | 
O=c1oc2c/c(=C\c3ccccc3)c(=O)c3cccc1c3-2 |  | 69.2 | > 100 | 44.1 | > 100 | > 100 | > 100 | 85.5 | 57.1 | > 100 | 
CNc1ncnc2c1nnn2C | > 100 |  | > 100 | > 100 |  | > 100 | > 100 | > 100 | > 100 | > 100 | 
COc1ccc(N2C(N)=C(C#N)C(C#N)(C#N)C2c2cccc([N+](=O)[O-])c2)cc1 (stereo not drawn) | 33.2 | 29.1 | 30.8 | 30.9 |  | 31.7 | 29.1 | 31.3 | 26 | 38.9 | 
N#CCSc1c(-c2ccccc2)c(=O)n(-c2ccccc2)c(=S)n1-c1ccccc1 | > 100 |  | > 100 | > 100 | > 100 |  | > 100 | > 100 | > 100 | > 100 | 
CC(NC(=O)C(Cc1cnc[nH]1)NC(=O)C1CCC(=O)N1)C(N)=O (stereo not drawn) ([pGlu]-His-Ala-NH2; configuration not given here) |  | > 100 | > 100 | > 100 | > 100 | > 100 | > 100 | > 100 | > 100 | > 100 | 
COc1cc2c(cc1OC(=O)c1cc3ccccc3[nH]1)N=C[C@@H]1CCCN1C2=O | 0.55 | 2.88 | 0.513 | 4.36 | 8.65 | 11.7 | 0.36 |  | 10.4 | 15.2 | 
CC(C)(C)OC(=O)N1Cc2cc(O)ccc2C[C@H]1C(=O)O | > 100 | > 100 | > 100 | > 100 | > 100 | > 100 | > 100 |  | > 100 | > 100 | 
COc1ccc(NCc2cnc3nc(N)nc(N)c3c2C)cc1 | > 100 | 0.962 | > 100 | > 100 | > 100 |  | > 100 | > 100 | > 100 | > 100 | 
N#CCOc1cccc(C2(N3CC=CCC3)CCCCC2)c1 | > 100 | > 100 | > 100 | > 100 |  | > 100 | > 100 | > 100 | > 100 | > 100 | 
Cc1cc(C)c2c(=N)c3ccccc3n(CCCCCCn3c4ccccc4c(=N)c4c(C)cc(C)nc43)c2n1 | 2.97 | 1.09 | 2.88 | 1.44 |  | 3.13 | 1.68 | 2.91 | 0.34 | 2.98 | 
CCOC(=O)C1C[C@H]2CO[C@H](c3ccccc3)N2C1=O (stereo partly drawn) | > 100 | > 100 | > 100 |  | > 100 | > 100 | > 100 | > 100 | > 100 |  | 
CO[C@H]1C[C@H](n2cc(C)c(=O)[nH]c2=O)O[C@@H]1CO |  | > 100 | > 100 | > 100 | > 100 | > 100 | > 100 | > 100 | > 100 | > 100 | 
Cc1c(O)c(=O)ccn1CCc1c[nH]c2ccccc12 |  | 6.47 |  | > 100 | 19.4 | 35.4 | 32.7 |  | > 100 | > 100 | 
CC1C2CC(CC2N)C1(C)C (stereo not drawn) |  | > 100 | > 100 | > 100 | > 100 | > 100 | > 100 | > 100 | > 100 | > 100 | 
COc1cc(/C=C2\N=C(C)N(n3c(-c4ccccc4)nc4ccccc4c3=O)C2=O)cc(OC)c1OC |  | > 100 | > 100 | > 100 | > 100 | > 100 | > 100 | > 100 | > 100 | > 100 | 
C/C(=N\NC(=O)c1cccnc1)c1cccc(/C(C)=N/NC(=O)c2cccnc2)n1.CC(=O)[O-].CC(=O)[O-].[Zn+2] | > 54.9 |  | > 100 | 65.6 | > 100 |  | > 100 | > 100 | > 100 | > 100 | 5.64
COC(=O)[C@@]12OC[C@]34C([C@@H](O)C1O)[C@@]1(C)CC(=O)C(O)=C(C)C1C[C@H]3OC(=O)[C@H](OC(=O)/C=C(/c1ccccc1)C(F)(F)F)[C@H]42 (stereo partly drawn) | > 25 |  | > 25 | > 25 | 6.71 |  | 15 | > 25 |  | > 25 | 
